The results in this text go back to ChEMBL document CHEMBL1132054, “Synthesis and properties of 2-(naphthosultamyl)methyl-carbapenems with potent anti-MRSA activity: discovery of L-786,392” (Bioorg Med Chem Lett, 1999).

Data set [1] has as its system Staphylococcus aureus. Put plainly: Antibacterial activity against Methicillin sensitive Staphylococcus aureus-/+ HSA Fr. V. Type of data set: functional.
The subject of data set [2] is Staphylococcus aureus. Put plainly: In vitro antibacterial activity against MRSA. Type of data set: functional.
A further data set deals with Streptococcus pneumoniae. As to the kind of experiment: In vitro antibacterial activity against PRSP. Type of data set: functional.
Data set [3] deals with T1, Dipeptidase 1 (Sus scrofa) (UniProt P22412).
T1 sequence (whole entry): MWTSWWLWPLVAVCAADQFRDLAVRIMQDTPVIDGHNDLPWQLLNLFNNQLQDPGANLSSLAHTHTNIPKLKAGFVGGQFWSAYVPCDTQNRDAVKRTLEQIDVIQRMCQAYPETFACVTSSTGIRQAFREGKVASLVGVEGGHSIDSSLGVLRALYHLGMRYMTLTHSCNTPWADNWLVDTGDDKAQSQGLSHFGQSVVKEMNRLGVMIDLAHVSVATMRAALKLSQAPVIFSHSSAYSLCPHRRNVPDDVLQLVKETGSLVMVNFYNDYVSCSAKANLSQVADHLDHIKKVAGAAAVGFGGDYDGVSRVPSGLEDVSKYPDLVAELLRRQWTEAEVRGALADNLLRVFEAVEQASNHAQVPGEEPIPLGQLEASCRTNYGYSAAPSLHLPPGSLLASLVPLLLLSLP
Put plainly: Susceptibility to hog kidney dehydropeptidase-I. The data set is classed as functional, tissue-based. The arrangement: reference not given here.

The test system of another data set is Enterococcus faecalis. As to the kind of experiment: In vitro antibacterial activity against VREFs. The data set is classed as functional.
A further data set deals with Enterococcus faecium. As to the kind of experiment: In vitro antibacterial activity against MDREFm. Type of data set: functional.
The subject of the next data set is Staphylococcus sp. Put plainly: In vitro antibacterial activity against MRCNS. The data set is classed as functional.
Data set [4] has as its system Staphylococcus aureus. As to the kind of experiment: Effect of 43 mg/mL of Human Serum Albumin, Fraction V (HSA Fr. V) on antimicrobial activity was assessed against MSSA strain MB 2985. The data set is classed as functional.
For another data set, the species on record is Mus musculus. Put plainly: Dose showing no visible effects (ataxia, somnolence) in two mice. Type of data set: functional.
Data set [5] is described as follows: Lethal dose defined as as the lowest dose resulting in the death of a single mouse. Particulars: in vivo. The data set is classed as toxicity.

SMILES strings stand for the structures. Values after ≈ are worked out from the molar mass of the structure shown. Where only a bound is given, the exact number is not on record here.

For orientation: MIC means the least concentration at which growth counts as inhibited. `C[C@@H](O)[C@H]1C(=O)N2C(C(=O)O)=C(CN3c4ccc(C[N+]56CC[N+](CC(N)=O)(CC5)CC6)c5cccc(c45)S3(=O)=O)[C@H](C)[C@H]12.[Cl-].[Cl-]`: the MIC in the data set with Staphylococcus aureus [1] was 0.031 µg/mL; in the data set with Staphylococcus aureus [2], 4.2 µg/mL; in the data set with Streptococcus pneumoniae it was 1 µg/mL; in the data set on Enterococcus faecalis, 32 µg/mL; against Enterococcus faecium, 32 µg/mL; against Staphylococcus sp., 12.1 µg/mL. The same compound came in with an MIC in the data set with Staphylococcus aureus [4] of 0.125 µg/mL. Also, the Activity in data set [3] came out at 0.81.
Take `C[C@@H](O)[C@H]1C(=O)N2C(C(=O)O)=C(SCCNC=N)C[C@H]12` [IMIPENEM ANHYDROUS]: the MIC against Staphylococcus aureus [1] was 0.016 µg/mL (≈ 0.0534 µM); with Staphylococcus aureus [2], above 40 µg/mL; with Streptococcus pneumoniae, 0.25 µg/mL (≈ 0.835 µM); against Enterococcus faecalis it was 8 µg/mL (≈ 26.7 µM); in the data set with Enterococcus faecium, above 64 µg/mL; with Staphylococcus sp., above 64 µg/mL. Inhibition of growth with Staphylococcus aureus [4] (MIC) required 0.016 µg/mL (≈ 0.0534 µM). The Activity in data set [3] came to 1.
`C[C@@H](O)[C@H]1C(=O)N2C(C(=O)O)=C(CN3c4cccc5cc(CC[N+]67CC[N+](CC(=O)Nc8ccccc8)(CC6)CC7)cc(c45)S3(=O)=O)[C@H](C)[C@H]12.[Cl-].[Cl-]`: the MIC against Staphylococcus aureus [2] turned out to be 0.2 µg/mL; with Streptococcus pneumoniae it was 0.17 µg/mL; in the data set on Enterococcus faecalis, 8 µg/mL; in the data set on Enterococcus faecium, 3.2 µg/mL; against Staphylococcus sp., 0.3 µg/mL. The NOEL in the data set filed under Mus musculus was below 61 mg/kg. The compound also showed an Activity in data set [3] of 0.64. The compound further gave a Lethal dose in data set [5] of 245 mg/kg.
Turning to `C[C@@H](O)[C@H]1C(=O)N2C(C(=O)O)=C(CN3c4ccc(CC[N+]56CC[N+](CC(N)=O)(CC5)CC6)c5cccc(c45)S3(=O)=O)[C@H](C)[C@H]12.[Cl-].[Cl-]`, the MIC with Staphylococcus aureus [1] came to 0.062 µg/mL; in the data set with Staphylococcus aureus [2], 8 µg/mL; against Streptococcus pneumoniae it was 1 µg/mL; against Enterococcus faecalis, 32 µg/mL; with Enterococcus faecium it was 16 µg/mL; against Staphylococcus sp., 12.1 µg/mL. Besides, it took 0.062 µg/mL to inhibit growth in the data set with Staphylococcus aureus [4] (MIC). The same compound gave an Activity in data set [3] of 0.74.
Take `C[C@@H](O)[C@H]1C(=O)N2C(C(=O)O)=C(CN3c4cccc5c(CCC[N+]67CC[N+](CC(N)=O)(CC6)CC7)ccc(c45)S3(=O)=O)[C@H](C)[C@H]12.[Cl-].[Cl-]`: the MIC against Staphylococcus aureus [1] was determined as 0.016 µg/mL; against Staphylococcus aureus [2], 2 µg/mL; in the data set on Streptococcus pneumoniae, 0.25 µg/mL; in the data set with Enterococcus faecalis it was 8 µg/mL; against Enterococcus faecium it was 4 µg/mL; with Staphylococcus sp., 3.5 µg/mL. Further, the MIC with Staphylococcus aureus [4] came out at 0.031 µg/mL. For the same compound, the NOEL in the data set listed under Mus musculus was found to be 125 mg/kg. The compound further gave an Activity in data set [3] of 2.64. In data set [5], this compound displayed a Lethal dose of 500 mg/kg.
In the case of `C[C@@H](O)[C@H]1C(=O)N2C(C(=O)O)=C(CN3c4cccc5c(CC[N+]67CC[N+](CC(=O)Nc8ccccc8)(CC6)CC7)ccc(c45)S3(=O)=O)[C@H](C)[C@H]12.[Cl-].[Cl-]`, the MIC against Staphylococcus aureus [2] is 0.8 µg/mL; with Streptococcus pneumoniae, 0.12 µg/mL; in the data set on Enterococcus faecalis, 4 µg/mL; against Enterococcus faecium, 4 µg/mL; against Staphylococcus sp., 1.5 µg/mL. Moreover, the NOEL in the data set listed under Mus musculus came out at 31 mg/kg. Further, the Activity in data set [3] came out at 1.4. Further, the Lethal dose in data set [5] turned out to be 63 mg/kg.
For the compound `C[C@@H](O)[C@H]1C(=O)N2C(C(=O)O)=C(CN3c4cccc5cc(C[N+]67CC[N+](CC(N)=O)(CC6)CC7)cc(c45)S3(=O)=O)[C@H](C)[C@H]12.[Cl-].[Cl-]`, the MIC turned out to be 0.016 µg/mL with Staphylococcus aureus [1]; 2 µg/mL against Staphylococcus aureus [2]; 0.5 µg/mL in the data set on Streptococcus pneumoniae; 16 µg/mL in the data set on Enterococcus faecalis; 8 µg/mL in the data set on Enterococcus faecium; 3 µg/mL against Staphylococcus sp.. The MIC against Staphylococcus aureus [4] is 0.031 µg/mL. Further, the Activity in data set [3] was 0.21.
As for `C[C@@H](O)[C@H]1C(=O)N2C(C(=O)O)=C(CN3c4cccc5c(CC[N+]67CC[N+](CCCO)(CC6)CC7)ccc(c45)S3(=O)=O)[C@H](C)[C@H]12.[Cl-].[Cl-]`, the MIC against Staphylococcus aureus [2] was 0.6 µg/mL; against Streptococcus pneumoniae, 0.5 µg/mL; against Enterococcus faecalis, 16 µg/mL; with Enterococcus faecium it was 6.4 µg/mL; against Staphylococcus sp. it was 0.9 µg/mL. The NOEL in the data set filed under Mus musculus was found to be 250 mg/kg. The same compound came in with an Activity in data set [3] of 1.9. The same compound showed a Lethal dose in data set [5] above 500 mg/kg.
Turning to `CCC[N+]12CC[N+](CCc3ccc4c5c(cccc35)N(CC3=C(C(=O)O)N5C(=O)[C@H]([C@@H](C)O)[C@H]5[C@H]3C)S4(=O)=O)(CC1)CC2.[Cl-].[Cl-]`, the MIC in the data set on Staphylococcus aureus [2] came to 2.2 µg/mL; in the data set with Streptococcus pneumoniae it was 0.25 µg/mL; in the data set with Enterococcus faecalis it was 16 µg/mL; against Enterococcus faecium it was 6.4 µg/mL; against Staphylococcus sp. it was 4 µg/mL. This compound displayed an Activity in data set [3] of 1.93.
Take `CCC[N+]12CC[N+](CCc3cc4c5c(cccc5c3)N(CC3=C(C(=O)O)N5C(=O)[C@H]([C@@H](C)O)[C@H]5[C@H]3C)S4(=O)=O)(CC1)CC2.[Cl-].[Cl-]`: the MIC against Staphylococcus aureus [2] was found to be 1 µg/mL; with Streptococcus pneumoniae, 0.24 µg/mL; in the data set on Enterococcus faecalis, 8 µg/mL; against Enterococcus faecium, 3.2 µg/mL; in the data set on Staphylococcus sp., 1.5 µg/mL.
On to `C[C@@H](O)[C@H]1C(=O)N2C(C(=O)O)=C(CN3c4c(CC[N+]56CC[N+](CC(N)=O)(CC5)CC6)ccc5cccc(c45)S3(=O)=O)[C@H](C)[C@H]12.[Cl-].[Cl-]`, for which the MIC in the data set with Staphylococcus aureus [1] was 32 µg/mL; in the data set with Staphylococcus aureus [2] it was above 64 µg/mL; with Streptococcus pneumoniae it was above 64 µg/mL; with Enterococcus faecalis, above 64 µg/mL; against Enterococcus faecium, above 64 µg/mL; against Staphylococcus sp., above 64 µg/mL. The minimum inhibitory concentration (MIC) against Staphylococcus aureus [4] was found to be 64 µg/mL.
As for `C[C@@H](O)[C@H]1C(=O)N2C(C(=O)O)=C(CN3c4cccc5cc(CC[N+]67CC[N+](CCCO)(CC6)CC7)cc(c45)S3(=O)=O)[C@H](C)[C@H]12.[Cl-].[Cl-]`, the MIC in the data set with Staphylococcus aureus [2] turned out to be 1.1 µg/mL; in the data set on Streptococcus pneumoniae, 0.17 µg/mL; against Enterococcus faecalis, 8 µg/mL; with Enterococcus faecium, 4 µg/mL; against Staphylococcus sp., 1.5 µg/mL. Moreover, the Activity in [3] is 0.85.
In the case of `C[C@@H](O)[C@H]1C(=O)N2C(C(=O)O)=C(CN3c4cccc5cc(CCC[N+]67CC[N+](CC(N)=O)(CC6)CC7)cc(c45)S3(=O)=O)[C@H](C)[C@H]12.[Cl-].[Cl-]`, the MIC was found to be 0.016 µg/mL in the data set with Staphylococcus aureus [1]; 2.2 µg/mL with Staphylococcus aureus [2]; 0.5 µg/mL in the data set with Streptococcus pneumoniae; 16 µg/mL with Enterococcus faecalis; 6.4 µg/mL against Enterococcus faecium; 4 µg/mL in the data set on Staphylococcus sp.. In the data set with Staphylococcus aureus [4], this compound returned an MIC of 0.031 µg/mL. This compound also displayed an Activity in data set [3] of 1.25.
Take `CN[C@H](CC(C)C)C(=O)N[C@H]1C(=O)N[C@@H](CC(N)=O)C(=O)N[C@H]2C(=O)N[C@H]3C(=O)N[C@H](C(=O)N[C@H](C(=O)O)c4cc(O)cc(O)c4-c4cc3ccc4O)[C@H](O)c3ccc(c(Cl)c3)Oc3cc2cc(c3O[C@@H]2O[C@H](CO)[C@@H](O)[C@H](O)[C@H]2O[C@H]2C[C@](C)(N)[C@H](O)[C@H](C)O2)Oc2ccc(cc2Cl)[C@H]1O` [VANCOMYCIN]: the MIC with Staphylococcus aureus [2] was 0.9 µg/mL (≈ 0.621 µM); with Streptococcus pneumoniae it was 0.35 µg/mL (≈ 0.242 µM); with Enterococcus faecalis it was above 64 µg/mL; with Enterococcus faecium, 20.2 µg/mL (≈ 13.9 µM); in the data set with Staphylococcus sp., 1.7 µg/mL (≈ 1.17 µM).
